These results are taken from patent US11365185B2, “Lysophosphatidic acid receptor 1 (LPAR1) inhibitor compounds” (Eli Lilly and Company, priority 2017, dated 2022).

Where a name gives a salt, the structure may show the parent alone. Some results are limits rather than exact numbers.

A word on the Ki: it is a dissociation constant, usually derived from enzyme kinetics or from competition with a known ligand. Low readings indicate tighter binding, high ones weaker binding. In general, IC50 refers to the point on the concentration scale where inhibition reaches its midpoint.

Test [1] addresses T1, LPAR1 (Homo sapiens (Human), UniProt Q92633). As to the kind of experiment: LPAR1 Membrane Binding Assay. Conditions: membrane containing LPAR1, radio labeled ligand, SPA. The procedure:
LPAR1 Membrane Binding Assay
The ability of a compound to inhibit binding of a ligand (1-(4′-(4-(((benzyloxy)carbonyl)amino)-3-methylisoxazol-5-yl)-[1,1′-biphenyl]-4-yl)cyclopropane-1-carboxylic acid) to LPAR1 is assessed via a membrane binding assay. Membrane containing LPAR1 was purchased from Cerep (Cat. No. 290312RB). Prior to the assay, membrane is thawed and homogenized for 15 seconds. 50 μl of test compounds and 50 μl of radio labeled ligand are added to the 96-well plates and then 50 of μl membrane (50-400 ug/ml) are added. Next, 50 μl of SPA PVT WGA beads are added (1-5 mg/ml) and the plates are sealed and incubated at room temperate for 5 minutes. Radio activity is measured by Beta Counter and IC50 values are determined using “Genedata Screener” analysis tool.
Target sequence in this assay (Q92633 whole entry, species assumed): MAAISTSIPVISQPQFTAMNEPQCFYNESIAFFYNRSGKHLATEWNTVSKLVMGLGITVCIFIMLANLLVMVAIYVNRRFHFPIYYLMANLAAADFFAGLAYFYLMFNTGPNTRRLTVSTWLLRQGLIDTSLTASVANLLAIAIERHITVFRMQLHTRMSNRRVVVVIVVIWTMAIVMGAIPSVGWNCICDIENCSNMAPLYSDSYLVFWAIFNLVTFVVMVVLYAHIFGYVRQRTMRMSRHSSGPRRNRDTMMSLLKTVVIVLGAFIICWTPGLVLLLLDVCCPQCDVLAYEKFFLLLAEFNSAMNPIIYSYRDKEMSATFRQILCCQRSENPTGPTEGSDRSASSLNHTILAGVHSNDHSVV

The subject of test [2] is Human hepatic stellate cell line LX-2. The test is described as follows: Calcium Influx of Human Hepatic Stellate Cells (LX-2). In kind it is cell-based. Conditions: LX-2 cells, LPA-stimulated calcium influx. The procedure:
Calcium Influx of Human Hepatic Stellate Cells (LX-2)
Human hepatic stellate cell line LX-2 is purchased from EMD Millpore. LX-2 cells are seeded at 20,000-40,000 cells per well in a 96-well poly-D-lysine coated plate one day before the assay. Prior to the assay, the cells are washed once with assay buffer (HBSS containing 20 mM HEPES and 0.2% BSA) and then incubated in 50 μl of assay buffer for 60 minutes. Then 50 μl of a calcium indicator dye (Fluo-4 NW, Molecular Probes) are added to each well and incubation is continued for 30 minutes at 37° C. and then 30 minutes at room temperature. 50 μl of test compounds in 4% DMSO are added to the cells and incubation is continued at room temperature for 40 minutes. Cells are stimulated by the addition of 50 μl of 128 nM LPA and intracellular calcium is measured using the FLIPR TETRA (Molecular Devices). IC50 values are determined using “Genedata Screener” analysis tool.

Test [3] has as its target T1, LPAR1. The test is described as follows: LPAR1 Calcium Flux Assay. Conditions: U937 cells overexpressing human LPAR1, LPA-stimulated calcium, FLIPR. In kind it is cell-based. How it is done: LPAR1 Calcium Flux Assays
A cDNA encoding the human LPAR1 receptor is synthesized and cloned into pDNA3 expression plasmid. The plasmid is transfected in U937 cells using Lipofectamine 2000 (Invitrogen Corp., USA). Clones stably expressing human LPAR1 are selected using puromycin and identified as cells that show Ca-influx in response to LPA.
U937 cells overexpressing human LPAR1 are seeded at 100,000 cells per well in a 96-well fibronectin (10 ug/ml) coated plate in 60 μl of assay buffer (HBSS containing 20 mM HEPES and 0.2% BSA) and then incubated for 60 minutes. Then 50 μl of a calcium indicator dye (Fluo-4 NW, Molecular Probes) are added to each well and incubation continued for 30 minutes at 37° C. and then 30 minutes at room temperature. 50 μl of test compounds in 4% DMSO are added to the cells and incubation continued at room temperature for 40 minutes. Cells are the stimulated by the addition of 50 μl of 128 nM LPA and intracellular calcium is measured using the FLIPR TETRA (Molecular Devices). IC50 values are determined using “Genedata Screener” analysis tool.
Target sequence in this assay (Q92633 whole entry): as the sequence (Q92633 whole entry, species assumed) above
On the technique in general: A change in cytosolic calcium serves as a functional read-out for many receptors and channels.

For a further test, the target named is human LPAR3 (Homo sapiens (Human), UniProt Q9UBY5). The test is described as follows: LPAR3 Calcium Flux Assay. Conditions: U2OS cells overexpressing human LPAR3, LPA-stimulated calcium, FLIPR. In kind it is cell-based. How it is done: LPAR3 Calcium Flux Assays
Chain of human LPAR3 (Q9UBY5 whole entry): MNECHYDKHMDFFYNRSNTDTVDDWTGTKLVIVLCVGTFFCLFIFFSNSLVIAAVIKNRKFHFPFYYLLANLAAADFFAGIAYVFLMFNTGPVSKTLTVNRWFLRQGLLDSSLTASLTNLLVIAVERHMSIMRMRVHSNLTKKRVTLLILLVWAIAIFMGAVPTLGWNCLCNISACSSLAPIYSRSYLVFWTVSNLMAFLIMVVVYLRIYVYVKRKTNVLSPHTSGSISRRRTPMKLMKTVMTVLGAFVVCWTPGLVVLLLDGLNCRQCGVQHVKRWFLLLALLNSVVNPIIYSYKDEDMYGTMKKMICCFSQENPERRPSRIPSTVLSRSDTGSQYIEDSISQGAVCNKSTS
A cDNA encoding the human LPAR3 receptor is synthesized and cloned into pDNA3 expression plasmid. The plasmid is transfected in U2OS cells using Lipofectamine 2000 (Invitrogen Corp., USA). Clones stably expressing human LPAR3 are selected using neomycin and identified as cells that show Ca-influx in response to LPA.
U2OS cells overexpressing human LPAR3 are seeded at 20,000-40,000 cells per well in a 96-well poly-D-lysine coated plate one day before the assay. Prior to the assay, the cells are washed once with assay buffer (HBSS containing 20 mM HEPES and 0.2% BSA) and then incubated in 50 μl of assay buffer for 60 minutes. Then 50 μl of a calcium indicator dye (Fluo-4 NW, Molecular Probes) are added to each well and incubation is continued for 30 minutes at 37° C. and then 30 minutes at room temperature. 50 μl of test compounds in 4% DMSO are added to the cells and incubation continued at room temperature for 40 minutes. Cells are stimulated by the addition of 50 μl of 128 nM LPA and intracellular calcium is measured using the FLIPR TETRA (Molecular Devices). IC50 values are determined using “Genedata Screener” analysis tool.

Test [4] deals with T1, LPAR1. As to the kind of experiment: LPAR1 Cytokine Release Assay (IL-6, MG63 cells). It is filed as cell-based. Conditions: LPA-stimulated IL-6 levels, 24 hours, ELISA. The procedure:
LPAR1 Cytokine Release Assay
Human MG63 cells are seeded at 20,000 per well in 96-well plates and incubated in MEM medium. One day later, the cell culture medium is removed and 60 μl of test compounds are added to each well. 30 minutes later, 60 μl of LPA (10 μM) are added to each well. 24 hours later, 50 μl of supernatant from each well are taken and IL-6 levels are measure by using ELISA kit (R&D Systems, Cat. No. D6050). IC50 values are determined using “Genedata Screener” analysis tool.
Target sequence in this assay (Q92633 whole entry): as the sequence (Q92633 whole entry, species assumed) above
For orientation: ELISA stands for enzyme-linked immunosorbent assay.

Regarding `CC(C)c1cncc(Nc2c(-c3ncc(-c4ccc(C5(C(=O)O)CC5)cc4)cn3)cnn2C)n1` [Example 18, 1-[4-[2-[5-[(6-isopropylpyrazin-2-yl)amino]-1-methyl-pyrazol-4-yl]pyrimidin-5-yl]phenyl]cyclopropanecarboxylic acid], the affinity at LPAR1 [1], expressed as Ki, was 24.5 nM. Further, the IC50 in test [2] stood at 7.94 nM; on LPAR1 [3], 24 nM; at human LPAR3, 2360 nM; at LPAR1 [4], 6.67 nM.

In the case of `CC(C)Cc1cncc(Nc2c(-c3ccc(-c4ccc(C5(C(=O)O)CC5)cc4)cc3)cnn2C)n1` [Example 17, 1-[4-[4-[5-[(6-isobutylpyrazin-2-yl)amino]-1-methyl-pyrazol-4-yl]phenyl]phenyl]cyclopropanecarboxylic Acid], the IC50 in test [2] was 23.1 nM; on LPAR1 [3], 54.7 nM; at human LPAR3, 1830 nM; against LPAR1 [4] it was 5.81 nM.

On to `CC(C)c1cncc(Nc2c(-c3ccc(-c4ccc(C5(C(=O)O)CC5)nc4)cn3)cnn2C)n1` [Example 23, Ammonia; 1-[5-[6-[5-[(6-isopropylpyrazin-2-yl)amino]-1-methyl-pyrazol-4-yl]-3-pyridyl]-2-pyridyl]cyclopropanecarboxylic Acid], for which the IC50 in test [2] was 21.5 nM; on LPAR1 [3] it was 111 nM; at human LPAR3, over 10000 nM; at LPAR1 [4] it was 183 nM.

For `Cc1cc(C2(C(=O)O)CC2)ccc1-c1ccc(-c2cnn(C)c2Nc2cncc(C(C)C)n2)nc1` [Example 22, 1-[4-[6-[5-[(6-isopropylpyrazin-2-yl)amino]-1-methyl-pyrazol-4-yl]-3-pyridyl]-3-methyl-phenyl]cyclopropanecarboxylic Acid; Hydrochloride], the 50% inhibitory concentration (IC50) in test [2] is 10.4 nM; on LPAR1 [3] it was 30.9 nM; at human LPAR3 it was 1170 nM; at LPAR1 [4], 11.2 nM.

At LPAR1 [1], `Cn1ncc(-c2ccc(-c3ccc(C4(C(=O)O)CC4)cc3)cn2)c1Nc1cncc(OC2CC2)n1` [Example 10, 1-[4-[6-[5-[[6-(cyclopropoxy)pyrazin-2-yl]amino]-1-methyl-pyrazol-4-yl]-3-pyridyl]phenyl]cyclopropanecarboxylic Acid] had a Ki of 12.5 nM. In addition, the IC50 amounted to 5.41 nM in test [2], 9.86 nM at LPAR1 [3] and 4420 nM on human LPAR3.

As to `CC(C)c1cncc(Nc2c(-c3ccc(-c4ccc(C5(C(=O)O)CC5)cn4)cn3)cnn2C)n1` [Example 24, 1-[6-[6-[5-[(6-isopropylpyrazin-2-yl)amino]-1-methyl-pyrazol-4-yl]-3-pyridyl]-3-pyridyl]cyclopropanecarboxylic Acid; Dihydrochloride], the Ki on LPAR1 [1] was 46.2 nM. Further, the IC50 was determined as 15.3 nM in test [2], 48 nM at LPAR1 [3] and 2760 nM at human LPAR3.

With `Cn1ncc(-c2ncc(-c3ccc(C4(C(=O)O)CC4)cc3)cc2F)c1Nc1cncc(C(C)(C)F)n1` [Example 4, 1-[4-[5-fluoro-6-[5-[[6-(1-fluoro-1-methyl-ethyl)pyrazin-2-yl]amino]-1-methyl-pyrazol-4-yl]-3-pyridyl]phenyl]cyclopropanecarboxylic Acid Hydrochloride], the Ki on LPAR1 [1] turned out to be 80.5 nM. Besides, the IC50 in test [2] turned out to be 8.67 nM; at LPAR1 [3], 16.7 nM; at human LPAR3, 1590 nM.

The compound `Cn1ncc(-c2ccc(-c3ccc(C4(C(=O)O)CC4)cc3)cc2)c1Nc1cncc(C2CC2)n1` [Example 25, Ammonium 1-[4-[4-[5-[(6-cyclopropylpyrazin-2-yl)amino]-1-methyl-pyrazol-4-yl]phenyl]phenyl]cyclopropanecarboxylate] came in with a Ki on LPAR1 [1] of 30.8 nM. The figures for the IC50 (in test [2]; at LPAR1 [3]; on human LPAR3) were 24.2 nM, 52.9 nM and over 10000 nM, respectively.
